Data reported in ChEMBL document CHEMBL5214915 (Eur J Med Chem, 2021).
In brackets after ≈: the same amount, converted by molar mass.

Tests used:
Format in all cases: functional
[1] = system: Mycobacterium tuberculosis variant bovis; assay: Antibacterial activity against Mycobacterium bovis BCG incubated for 1 week in 7H9/ADC/Tw medium in presence of 0.1 mM indole
[2] = system: Mycobacterium tuberculosis variant bovis; assay: Antibacterial activity against Mycobacterium bovis BCG incubated for 1 week in 7H9/ADC/Tw medium
[3] = system: Mycobacterium tuberculosis variant bovis; assay: Antibacterial activity against Mycobacterium bovis BCG incubated for 1 week in 7H9/ADC/Tw medium in presence of 0.1 mM chorismate
[4] = system: Mycobacterium tuberculosis variant bovis; assay: Antibacterial activity against Mycobacterium bovis BCG incubated for 1 week in 7H9/ADC/Tw medium in presence of 0.1 mM Trp
[5] = system: Mycobacterium tuberculosis variant bovis; assay: Antibacterial activity against Mycobacterium bovis BCG incubated for 1 week in 7H9/ADC/Tw medium in presence of 0.1 mM anthranilate
[6] = system: Mycobacterium tuberculosis variant bovis; assay: Antibacterial activity against Mycobacterium bovis BCG incubated for 1 week in 7H9/ADC/Tw medium in presence of 0.5 mM chorismate
[7] = Mycobacterium tuberculosis variant bovis, BCG, 168 h, read-out: MIC

## Nc1cccc(F)c1C(=O)NNc1ccccc1
[1]; [7]
  MIC: > 50 µM
[2]; [7]
  MIC: 2 µM (≈ 0.491 µg/mL)
[3]; [7]
  MIC: 8.15 µM
[4]; [7]
  MIC: > 50 µM
[5]; [7]
  MIC: > 50 µM
[6]; [7]
  MIC: 8.15 µM

## Cl.Nc1cccc(F)c1C(=O)NNc1ccccc1
[1]
  MIC: >50 µM
[2]
  MIC: 3.5 µM
[3]
  MIC: 7.1 µM
[4]
  MIC: >50 µM
[5]
  MIC: >50 µM
[6]
  MIC: 14.2 µM

## Nc1cccc(F)c1C(=O)NNc1c(Cl)cc(Cl)cc1Cl
[1]; [7]
  MIC: > 50 µM
[2]; [7]
  MIC: 22.9 µM (≈ 7.98 µg/mL)
[3]; [7]
  MIC: 45.9 µM
[4]; [7]
  MIC: > 50 µM
[5]; [7]
  MIC: > 50 µM
[6]; [7]
  MIC: 45.9 µM

## Nc1cccc(F)c1C(=O)O
[1]; [7]
  MIC: > 50 µM
[2]; [7]
  MIC: 6.4 µM (≈ 0.993 µg/mL)
[3]; [7]
  MIC: 6.4 µM
[4]; [7]
  MIC: > 50 µM
[5]; [7]
  MIC: > 50 µM
[6]; [7]
  MIC: 6.4 µM
